Measurements as given in article PMC9098912, “Molecular basis for inhibiting human glucose transporters by exofacial inhibitors” (Nature Communications, 2022).
“Also recorded” adds a separate entry of the source.

Assays:
GLUT1 = tested on: GLUT1; set-up: method as in Siebeneicher et al., 2016; conditions: SAR of Bayer compounds; ref Siebeneicher et al., 2016; cited from earlier work
WT GLUT3 = target: T1, WT GLUT3 (Homo sapiens, UniProt P11169, N43T); assay: Microscale thermophoresis (MST) binding assay; set-up: Figure 1e middle: MST binding curve, Mean / Figure 1e right: MST binding curve, Mean / Figure 2c: MST binding curve, Mean: unit not given here; conditions: for Figure 1e right: MST binding curve, Mean: GLUT3, log [phloretin]
T1 construct: His10 (N); made in house; host or cells: Sf9 insect cells (baculovirus)
T1 sequence (P11169 1-496 N43T): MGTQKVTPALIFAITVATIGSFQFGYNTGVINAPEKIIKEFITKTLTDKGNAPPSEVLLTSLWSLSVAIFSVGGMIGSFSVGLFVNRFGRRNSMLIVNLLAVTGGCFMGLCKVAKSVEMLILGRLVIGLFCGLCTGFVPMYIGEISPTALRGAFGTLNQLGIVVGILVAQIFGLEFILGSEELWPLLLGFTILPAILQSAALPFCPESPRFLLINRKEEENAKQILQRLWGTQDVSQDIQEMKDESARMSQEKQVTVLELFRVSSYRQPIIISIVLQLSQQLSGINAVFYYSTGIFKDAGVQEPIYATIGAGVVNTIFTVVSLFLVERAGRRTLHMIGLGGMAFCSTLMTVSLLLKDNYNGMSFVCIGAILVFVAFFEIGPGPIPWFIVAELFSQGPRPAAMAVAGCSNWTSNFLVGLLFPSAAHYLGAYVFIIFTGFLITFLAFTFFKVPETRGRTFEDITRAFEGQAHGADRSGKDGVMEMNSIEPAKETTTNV
Description: (§1) All mutants were generated by standard PCR-based strategy.
(§2) Inhibitors with serial dilutions were mixed with indicated protein. […] MST analyses were conducted on a Monolith NT. […] The MST data was analyzed by Monolith NT.115.

[1] = target: T2, GLUT3exo (GLUT3 S64W and I305W) (Homo sapiens, UniProt P11169, I305W/N43T/S64W); assay: biochemical; assay type: binding; conditions: for Figure 1e right: MST binding curve, Mean: GLUT3 dTrp mutant, log [phloretin]
T2 construct: His10 (N); made in house; host or cells: Sf9 insect cells (baculovirus)
T2 sequence (P11169 whole entry N43T/S64W/I305W): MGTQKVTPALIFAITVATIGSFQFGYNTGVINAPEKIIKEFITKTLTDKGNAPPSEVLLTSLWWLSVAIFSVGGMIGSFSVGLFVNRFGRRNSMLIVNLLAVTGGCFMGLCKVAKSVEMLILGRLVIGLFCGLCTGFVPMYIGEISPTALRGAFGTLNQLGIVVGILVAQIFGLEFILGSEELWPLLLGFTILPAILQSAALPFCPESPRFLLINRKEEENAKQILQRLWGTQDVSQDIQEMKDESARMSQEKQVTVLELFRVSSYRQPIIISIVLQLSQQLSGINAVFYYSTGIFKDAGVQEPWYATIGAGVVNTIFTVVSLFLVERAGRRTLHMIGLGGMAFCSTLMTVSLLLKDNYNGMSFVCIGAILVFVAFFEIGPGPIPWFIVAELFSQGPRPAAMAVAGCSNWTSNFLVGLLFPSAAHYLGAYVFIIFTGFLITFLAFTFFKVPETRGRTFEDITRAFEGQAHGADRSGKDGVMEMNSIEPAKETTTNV
Description: Following the same principle for the engineering of XylE-WW, we introduced two Trp substitutions, S64W and I305W, on the extracellular segments of TM2 and TM8 of GLUT3, respectively. This variant will be referred to as GLUT3exo hereafter (Fig. 1a). The two bulky substituents were expected to trap GLUT3 in an outward-facing conformation.
as §1, §2

In the case of COc1ccccc1N1CCN(c2ncnc3c2cnn3-c2ccccc2)CC1 [cmpd 3], the “GLUT1 potency” value (GLUT1) is listed as “increased the potency”.
In the case of FC(F)(F)Oc1ccccc1N1CCN(c2ncnc3c2cnn3-c2ccccc2)CC1 [cmpd 4], the “GLUT1 potency” value (GLUT1) is listed as “completely inactive”.
In the case of FC(F)(F)c1ccccc1N1CCN(c2ncnc3c2cnn3-c2ccccc2)CC1 [cmpd 6], the “GLUT1 potency” value (GLUT1) is given as “completely inactive”.
For COc1cccc(N2CCN(c3ncnc4c3cnn4-c3ccccc3)CC2)c1 [cmpd 8], the “GLUT1 potency” value (GLUT1) is listed as “decreased the GLUT1 potency”.
In the case of COc1ccc(N2CCN(c3ncnc4c3cnn4-c3ccccc3)CC2)cc1 [cmpd 10], the “GLUT1 potency” value (GLUT1) is given as “decreased the GLUT1 potency”.
In the case of COc1ccccc1N1CCN(c2ncnc3c2cnn3-c2ccccc2)CC1C (stereo not shown) [cmpd 37], the “GLUT1 potency” value (GLUT1) is listed as “tolerated”.
For COc1ccccc1N1CC2(C1)CN(c1ncnc3c1cnn3-c1ccccc1)C2 [cmpd 41], the “GLUT1 potency” value (GLUT1) is given as “less potent”.
In the case of COc1ccccc1N1CCCN(c2ncnc3c2cnn3-c2ccccc2)CC1 [cmpd 42], the “GLUT1 potency” value (GLUT1) is given as “increased the potency”.
For COc1ccccc1N1CCN(c2ncnc3c2cnn3-c2ccccc2F)CC1 [cmpd 49], the “GLUT1 potency” value (GLUT1) is given as “without significant loss of GLUT1 inhibition activity; also recorded: increased the potency”.
For COc1ccccc1N1CCN(c2ncnc3c2cnn3-c2ccccn2)CC1 [cmpd 63], the “GLUT1 potency” value (GLUT1) is listed as “significantly reduced the potency”.
For COc1ccccc1N1CCN(c2ncnc3c2cnn3-c2ncccc2F)CC1 [cmpd 66], the “GLUT1 potency” value (GLUT1) is listed as “significantly reduced the potency”.
In the case of COc1ccccc1N1CCN(c2ncnc3c2cnn3-c2ccccc2OC)CC1 [compound 50], the “GLUT1 potency” value (GLUT1) is given as “without significant loss of GLUT1 inhibition activity”.
In the case of COc1ccccc1N1CCN(c2ncnc3c2cnn3-c2ccccc2C)CC1 [compound 51], the “GLUT1 potency” value (GLUT1) is listed as “without significant loss of GLUT1 inhibition activity”.
In the case of COc1ccccc1N1CCN(c2ncnc3c2cnn3-c2cccnc2)CC1 [compound 64], the “GLUT1 potency” value (GLUT1) is listed as “significantly reduced the potency”.
In the case of COc1ccccc1N1CCN(c2ncnc3c2cnn3-c2ccncc2)CC1 [compound 65], the “GLUT1 potency” value (GLUT1) is given as “significantly reduced the potency”.
With O=C(CCc1ccc(O)cc1)c1c(O)cc(O)cc1O [phloretin] the “Figure 1e right: MST binding curve, Mean” value (WT GLUT3; M -3.30103) was 99.1935, the “Figure 1e right: MST binding curve, Mean” value (WT GLUT3; M -3.60206) was 89.7967 and the “Figure 1e right: MST binding curve, Mean” value (WT GLUT3; M -3.90309) was 81.0827. The “Figure 1e right: MST binding curve, Mean” value (WT GLUT3; M -4.20412) was 66.445, the “Figure 1e right: MST binding curve, Mean” value (WT GLUT3; M -4.50515) was 50.3655 and the “Figure 1e right: MST binding curve, Mean” value (WT GLUT3; M -4.80618) was 41.2635. The “Figure 1e right: MST binding curve, Mean” value (WT GLUT3; M -5.10721) was 25.71, the “Figure 1e right: MST binding curve, Mean” value (WT GLUT3; M -5.40824) was 15.7731 and the “Figure 1e right: MST binding curve, Mean” value (WT GLUT3; M -5.70927) was 5.8894. The “Figure 1e right: MST binding curve, Mean” value (WT GLUT3; M -6.0103) was 4.0557, the “Figure 1e right: MST binding curve, Mean” value (WT GLUT3; M -6.31133) was 2.0286 and the “Figure 1e right: MST binding curve, Mean” value (WT GLUT3; M -6.61236) was 4.4085. The “Figure 1e right: MST binding curve, Mean” value (WT GLUT3; M -6.91339) was 1.9121, the “Figure 1e right: MST binding curve, Mean” value (WT GLUT3; M -7.21442) was -7.4814 and the “Figure 1e right: MST binding curve, Mean” value (WT GLUT3; M -7.51545) was -2.4182. The “Figure 1e right: MST binding curve, Mean” value (WT GLUT3; M -7.81648) was 0.9156, the Kd (WT GLUT3; WT GLUT3) was 26.3 ± 3.2 µM and the Kd [1] was 15.5 ± 1.5 µM. The “Figure 1e right: MST binding curve, Mean” value ([1]; M -3.30103) was 98.0572, the “Figure 1e right: MST binding curve, Mean” value ([1]; M -3.60206) was 93.8274 and the “Figure 1e right: MST binding curve, Mean” value ([1]; M -3.90309) was 89.3364. The “Figure 1e right: MST binding curve, Mean” value ([1]; M -4.20412) was 79.2593, the “Figure 1e right: MST binding curve, Mean” value ([1]; M -4.50515) was 66.4804 and the “Figure 1e right: MST binding curve, Mean” value ([1]; M -4.80618) was 46.5416. For the same molecule, the “Figure 1e right: MST binding curve, Mean” value ([1]; M -5.10721) was 34.4965, the “Figure 1e right: MST binding curve, Mean” value ([1]; M -5.40824) was 22.7361 and the “Figure 1e right: MST binding curve, Mean” value ([1]; M -5.70927) was 13.3872. The “Figure 1e right: MST binding curve, Mean” value ([1]; M -6.0103) was 7.2146, the “Figure 1e right: MST binding curve, Mean” value ([1]; M -6.31133) was 0.8877 and the “Figure 1e right: MST binding curve, Mean” value ([1]; M -6.61236) was 6.4707. For the same molecule, the “Figure 1e right: MST binding curve, Mean” value ([1]; M -6.91339) was 2.3532, the “Figure 1e right: MST binding curve, Mean” value ([1]; M -7.21442) was 1.6413 and the “Figure 1e right: MST binding curve, Mean” value ([1]; M -7.51545) was 0.1149. For the same molecule, the “Figure 1e right: MST binding curve, Mean” value ([1]; M -7.81648) was 2.456.
